From patent publication US5690957A, “Prostaglandin derivatives” (Ono Pharmaceutical Co., Ltd., priority 1995, dated 1997)

Columns and labels:
[1] = Blood flow increasing effect in anesthetized rats (laser-Doppler cutaneous blood flow, AUC); assay type: in vivo; settings: i.v., rat
Protocol: (§1) The blood flow increasing effect and hypotensive effect of the compounds of the present invention were determined by the following experiment.
(§2) Male rats weighing 200-350 g were anesthetized with urethane (25% urethane, 6 ml/kg, s.c.). The carotid artery and jugular vein were cannulated with polyethylene tubes for measurement of blood pressure and for drug injection, respectively. Blood pressure was obtained with a disposable pressure transducer kit (Spectramed, Ltd) and recorded with a recticoder (model RJG-4128, Nihon kohden, Ltd). Blood flow was monitored as cutaneous blood flow of the dorsum pedis using an attachment-type laser-Doppler flowmeter (model ALF21, Advance, Ltd). Measurements were taken until the values recovered to the level observed before injection of drugs. Injection time was about 10 seconds. The hypotensive effect and blood flow increasing effect were calculated as the maximal hypotensive activity (mmHg) and the area under the curve (AUC) after injection of drugs, respectively.
(§3) The results were represented by the dose required to obtain an effective increase in blood flow (main effect), and by the hypotensive effect (side effect) at the same dose.
(§4) The compounds of the present invention were administered in the form of a liposome formulation (as prepared in Example 4 below). As a comparative compound, PGE1 1-decanoyloxyethyl ester (described in Example 10 of the specification of Japanese Patent Kokai No. 59-206349) was administered in the form of a lipid emulsion (prepared in Reference Example 8 in the present specification).
The effectiveness of increasing blood flow was determined by the following method. […] In the above-described experimental assessment system for the compounds of the present invention, the AUG for this PGE1 lipid emulsion (5 μg/kg, i.v.) was 771 on the blood flow increasing effect; thus this value was chosen as an effective value for increase in blood flow.

[2] = Hypotensive effect in anesthetized rats (carotid artery blood pressure); assay type: in vivo; settings: rat; for Hypotensive effect, Maximum hypotension on dose (A): at dose (A) giving AUC = 771, i.v.; for Hypotensive effect, Maximum hypotension: i.v.
Protocol: as §1, §2, §3, §4

[3] = dose 1 μg/kg, Examples as liposome formulation, comparative compound as lipid emulsion
[4] = dose 3 μg/kg, Examples as liposome formulation, comparative compound as lipid emulsion
[5] = dose 10 μg/kg, Examples as liposome formulation, comparative compound as lipid emulsion
[6] = Examples as liposome formulation, comparative compound as lipid emulsion
[7] = dose 30 μg/kg, liposome formulation

CCCCCCCCCC(=O)OC(C)OC(=O)CCCCCC[C@H]1C(=O)C[C@@H](O)[C@@H]1/C=C/[C@@H](O)CCCCC (some centres unmarked) [Comparative compound, PGE1 1-decanoyloxyethyl ester, reference compound]
Blood flow increasing effect, Total AUC [1, 3]: 92 | Blood flow increasing effect, Total AUC [1, 4]: 222 | Blood flow increasing effect, Total AUC [1, 5]: 498 | Blood flow increasing effect, Dose (A) required to obtain AUC = 771 [1, 6]: 16.70 µg/kg | Hypotensive effect, Maximum hypotension on dose (A) [2, 6]: 30.2 mmHG | Hypotensive effect, Maximum hypotension [2, 3]: 1 mmHg | Hypotensive effect, Maximum hypotension [2, 4]: 9 mmHg | Hypotensive effect, Maximum hypotension [2, 5]: 18 mmHg

CCCCCCCCCCCC(=O)OCCOC(=O)CCCCCC[C@H]1C(=O)C[C@@H](O)[C@@H]1/C=C/[C@@H](O)CCCCC [Example 1, PGE1 (dodecanoyloxy)ethyl ester]
Blood flow increasing effect, Total AUC [1, 3]: 175 | Blood flow increasing effect, Total AUC [1, 4]: 1914 | Blood flow increasing effect, Total AUC [1, 5]: 3528 | Blood flow increasing effect, Dose (A) required to obtain AUC = 771 [1, 6]: 1.47 µg/kg | Hypotensive effect, Maximum hypotension on dose (A) [2, 6]: 4.3 mmHG | Hypotensive effect, Maximum hypotension [2, 3]: 3 mmHg | Hypotensive effect, Maximum hypotension [2, 4]: 7 mmHg | Hypotensive effect, Maximum hypotension [2, 5]: 13 mmHg

CCCCCCCCCCCCCCCCOCC(=O)OCCOC(=O)CCCCCC[C@H]1C(=O)C[C@@H](O)[C@@H]1/C=C/[C@@H](O)CCCCC [Example 2, PGE1 2-(hexadecyloxyacetoxy)ethyl ester]
Blood flow increasing effect, Total AUC [1, 4]: 329 | Blood flow increasing effect, Total AUC [1, 5]: 807 | Blood flow increasing effect, Total AUC [1, 7]: 3248 | Blood flow increasing effect, Dose (A) required to obtain AUC = 771 [1, 6]: 8.14 µg/kg | Hypotensive effect, Maximum hypotension on dose (A) [2, 6]: 6.1 mmHG | Hypotensive effect, Maximum hypotension [2, 4]: 3 mmHg | Hypotensive effect, Maximum hypotension [2, 5]: 7 mmHg | Hypotensive effect, Maximum hypotension [2, 7]: 20 mmHg

CCCCCCCCCCCCOCC(=O)OCCOC(=O)CCCCCC[C@H]1C(=O)C[C@@H](O)[C@@H]1/C=C/[C@@H](O)CCCCC [Example 3, PGE1 2-(dodecyloxyacetoxy)ethyl ester]
Blood flow increasing effect, Total AUC [1, 3]: 227 | Blood flow increasing effect, Total AUC [1, 4]: 4028 | Blood flow increasing effect, Total AUC [1, 5]: 5391 | Blood flow increasing effect, Dose (A) required to obtain AUC = 771 [1, 6]: 1.14 µg/kg | Hypotensive effect, Maximum hypotension on dose (A) [2, 6]: 2.8 mmHG | Hypotensive effect, Maximum hypotension [2, 3]: 2 mmHg | Hypotensive effect, Maximum hypotension [2, 4]: 9 mmHg | Hypotensive effect, Maximum hypotension [2, 5]: 9 mmHg
